Laboratory results taken from ChEMBL document CHEMBL2010659, “Synthesis of novel long wavelength cationic chlorins via stereoselective aldol-like condensation” (Bioorg Med Chem Lett, 2012).
Calls of active or inactive are those of the source. No cut-off for these calls is given here.

Experiments:
Type in all cases: functional, cell-based
[1] = test system: HeLa; experiment: Cytotoxicity against human HeLa cells of light exposed compound up to 10 uM after 12 hrs by WST-8 assay
[2] = test system: HeLa; experiment: Cytotoxicity against human HeLa cells up to 10 uM after 12 hrs by WST-8 assay
[3] = test system: HeLa; experiment: Cytotoxicity against human HeLa cells of light exposed compound after 12 hrs by WST-8 assay

SMILES | Activity [1] | Activity [2] | Activity [3] | IC50 [3] [nM]
CCC1=C(C)c2cc3[nH]c(cc4nc(c5c6[nH]c(cc1n2)c(C)c6C(=O)C5)[C@@H](CCC(=O)OC)[C@@H]4C)c(C)c3/C=C/c1ccc2ccccc2[n+]1C | Active | inactive | Dose-dependent effect | 5360
CCC1=C(C)c2cc3[nH]c(cc4nc(c5c6[nH]c(cc1n2)c(C)c6C(=O)N(OC)C5=O)[C@@H](CCC(=O)OC)[C@@H]4C)c(C)c3/C=C/c1ccc2ccccc2[n+]1C | Active | inactive | Dose-dependent effect | 970
C=Cc1c(C)c2cc3nc(c4c5[nH]c(cc6nc(cc1[nH]2)C(C)=C6CC)c(C)c5C(=O)C4)[C@@H](CCC(=O)OC)[C@@H]3C [METHYL PYROPHEOPHORBIDE A] | Active | inactive | Dose-dependent effect | 280
C=Cc1c(C)c2cc3nc(c4c5[nH]c(cc6nc(cc1[nH]2)C(C)=C6CC)c(C)c5C(=O)N(OC)C4=O)[C@@H](CCC(=O)OC)[C@@H]3C | Active | inactive | Dose-dependent effect | 2710
CCC1=C(C)c2cc3[nH]c(cc4nc(c5c6[nH]c(cc1n2)c(C)c6C(=O)C5)[C@@H](CCC(=O)OC)[C@@H]4C)c(C)c3/C=C/c1cc[n+](C)cc1 | Active | inactive | Dose-dependent effect | 7940
CCC1=C(C)c2cc3[nH]c(cc4nc(c5c6[nH]c(cc1n2)c(C)c6C(=O)N(OC)C5=O)[C@@H](CCC(=O)OC)[C@@H]4C)c(C)c3/C=C/c1cccc[n+]1C | Active | inactive | Dose-dependent effect | 110
